We go through four molecules from patent publication US20210052701A1, “Methods of Treating Vascular Leakage Using CXCL12 Peptides” (The Medical College of Wisconsin, Inc., priority 2018, published 2021).

Entries after “also recorded” stand apart in the source; their conditions may differ. Read-outs that look alike come from different tables or passages of the source.

In assay [1] the test system is hPPAEC. In words: Effects of CXCR4 agonists / CXCL12 variants on thrombin-induced impairment of hPPAEC monolayer permeability. Type of assay: cell-based, human. The method, then: FIGS. 3A-3D show effects of CXCL12 and ubiquitin on thrombin-induced impairment of hPPAEC monolayer permeability. hPPAEC were grown to a confluent monolayer on collagen-coated permeable membranes. (A) hPPAEC were pre-treated with vehicle, 100 nM of CXCL12 or ubiquitin for 10 minutes, as indicated, and then exposed to thrombin (50 nM), followed by the addition of FITC-dextran. Vehicle: no thrombin. Endothelial permeability was assessed by measuring the amount of FITC-dextran that permeated through the cell monolayer. No cells: 100% permeability (open circles). RFU: Relative fluorescence units. N=3 in quadruplicate. *: p<0.05 vs. vehicle/thrombin. (B-D) hPPAEC were exposed to 35 nM of thrombin or vehicle. After 10 min, thrombin-exposed cells were treated with vehicle, CXCL12 (50 nM) and/or AMD3100 (10 μM) (B), with vehicle, ubiquitin (50 nM) and/or AMD3100 (10 μM) (C) or with various concentrations of ubiquitin (D) followed by the addition of FITC-dextran. The experimental conditions are indicated. Endothelial permeability was assessed by measuring the amount of FITC-dextran that permeated through the cell monolayer. RFU: Relative fluorescence units. N=3 in quadruplicate. *: p<0.05 vs. thrombin/vehicle (2-way ANOVA/Bonferroni's multiple comparison post hoc test).
FIGS. 7A-7D show dose-dependent effects of CXCL12α/β, CXCL12 (3-68) and CXCL12 mutants K27A/R41A/R47A, R47E and S-S4V on thrombin-induced impairment of hPPAEC monolayer permeability. hPPAEC cells were grown to a confluent monolayer on collagen-coated permeable membranes. hPPAEC were then exposed to 35 nM of thrombin. After 10 min, thrombin-exposed cells were treated with vehicle or 50 nM (A), 5 nM (B), 0.5 nM (C) or 0.05 nM (D) of the various proteins, as indicated. In (D) 5 nM CXCL12a was used as a positive control. N=3 in quadruplicate.
FIGS. 8A-8D show dose-dependent effects of CXCL12α, CXCL121 and CXCL122 on thrombin-induced impairment of hPPAEC monolayer permeability. hPPAEC cells were grown to a confluent monolayer on collagen-coated permeable membranes. hPPAEC were then exposed to 35 nM of thrombin. After 10 min, thrombin-exposed cells were treated with vehicle or 50 nM (A), 5 nM (B), 0.5 nM (C) or 0.05 nM (D) of the various proteins, as indicated. In (D) 5 nM CXCL12α was used as a positive control. N=3 in quadruplicate.
FIGS. 9A-9B show inhibition of thrombin-induced hyper-permeability of hPPAEC by CXCL12/CXCL12 variants. % inhibition: % inhibition of thrombin-induced hyperpermeability. Data from FIGS. 7 and 8 at t=255 min. N=3 in quadruplicate. *: p<0.05 vs. CXCL12a (2-way ANOVA/Bonferroni's multiple comparison post hoc test).
(§1) In vitro vascular permeability assays—Permeability assays were obtained from Millipore (ECM642) and performed as per manufacturer's instructions. In brief, 96-well collagen-coated permeability assay plates were pre-hydrated for 15 min, 5×10^5 cells were seeded on each well and grown to a confluent monolayer for 48 hours. Fluorescein isothiocyanate (FITC)-dextran (20 μg/mL) was then added on top of the monolayer and the amount of FITC-dextran that permeated through the monolayer was quantified by measuring fluorescence in a Synergy 2 Multi-mode Microplate Reader (BioTek, Winooski, Vt.) at various time points over a 255 min time period.

The next assay deals with T1, CXCR4 (Homo sapiens, UniProt P61073).
T1 construct: host or cells: HTLA cells (HEK293 line stably expressing a tTA-dependent luciferase reporter and a β-arrestin2-TEV fusion gene)
T1 sequence (P61073 whole entry, the tested form may be a part): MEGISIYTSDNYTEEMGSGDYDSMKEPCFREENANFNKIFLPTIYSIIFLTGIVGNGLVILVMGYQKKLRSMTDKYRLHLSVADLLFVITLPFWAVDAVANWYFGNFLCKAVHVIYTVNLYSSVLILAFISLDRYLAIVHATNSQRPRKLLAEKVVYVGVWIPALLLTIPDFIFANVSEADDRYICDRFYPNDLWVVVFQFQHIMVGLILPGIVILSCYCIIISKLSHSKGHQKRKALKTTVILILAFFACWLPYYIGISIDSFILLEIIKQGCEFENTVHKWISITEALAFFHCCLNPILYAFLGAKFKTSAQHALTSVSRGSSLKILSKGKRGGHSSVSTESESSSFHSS
The assay can be described thus: Presto-Tango β-arrestin 2 recruitment assay for CXCR4. Type of assay: cell-based. The method, then: (§2) FIGS. 6A-6F show Presto-Tango β-arrestin 2 recruitment assays for CXCR4 (A-C) and ACKR3 (D-F). RLU %: % of the luminescence signal for 1 μM CXCL12α. N=9 for CXCL12a and n=3 for all other proteins.
(§3) Presto-Tango β-arrestin 2 recruitment assay—The PRESTO-Tango (parallel receptorome expression and screening via transcriptional out-put, with transcriptional activation following arrestin translocation) assay was performed as recently described. The Tango plasmids were a gift from Dr. Bryan Roth (all from Addgene). HTLA cells (2.5×10^5/well) were seeded in a 6-well plate and transfected with 1.5 μg of the Tango plasmids using Lipofectamine 3000 (ThermoScientific). The following day, transfected HTLA cells (1×10^5 cells/well) were plated onto Poly-L-Lysine pre-coated 96-well micro-plates and allowed to attach to the plate surface for at least 4 hours prior to treatment. Proteins used for treatment were prepared in twice the final concentration in culture media, added at a 1:1 vol/vol ratio and incubated overnight at 37° C., 5% CO2 in a humidified environment. The following morning, media was removed from cell culture plates and replaced with a 100 μL 1:5 mixture of Bright-Glo (Promega) and 1×HBSS, 20 mM HEPES solution. Plates were then incubated at room temperature before measuring luminescence on a Biotek Synergy II plate reader.

The target in the next assay is T2, ACKR3 (Homo sapiens, UniProt P25106).
T2 construct: host or cells: HTLA cells (HEK293 line stably expressing a tTA-dependent luciferase reporter and a β-arrestin2-TEV fusion gene)
T2 sequence (P25106 whole entry, the tested form may be a part): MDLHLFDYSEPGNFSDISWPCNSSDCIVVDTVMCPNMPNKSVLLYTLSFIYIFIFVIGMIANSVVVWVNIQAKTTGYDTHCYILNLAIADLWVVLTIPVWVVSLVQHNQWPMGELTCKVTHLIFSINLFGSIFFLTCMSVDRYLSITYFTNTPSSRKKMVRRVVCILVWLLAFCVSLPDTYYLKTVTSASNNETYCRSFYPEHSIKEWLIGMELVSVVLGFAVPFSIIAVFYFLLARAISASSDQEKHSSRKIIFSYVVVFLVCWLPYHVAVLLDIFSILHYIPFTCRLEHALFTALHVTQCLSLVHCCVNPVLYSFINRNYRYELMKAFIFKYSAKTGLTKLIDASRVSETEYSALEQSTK
The assay can be described thus: Presto-Tango β-arrestin 2 recruitment assay for ACKR3. Type of assay: cell-based. The method, then:
as §2, §3

The subject of assay [2] is hPPAEC. The assay can be described thus: Thrombin dose-response in hPPAEC monolayer permeability assay. Type of assay: cell-based, human. Conditions: for EC50: read-out: EC50 for thrombin-induced impairment of hPPAEC barrier function; for maximal impairment of endothelial barrier function: 100% = permeability in the absence of hPPAEC. On the procedure:
FIGS. 2A-2B show impairment of hPPAEC monolayer permeability by thrombin. (A) hPPAEC were grown to a confluent monolayer on collagen-coated permeable membranes and then exposed to different concentration of thrombin for 10 min, followed by the addition of FITC-dextran. Endothelial permeability was assessed by measuring the amount of FITC-dextran that permeated through the cell monolayer. No cells: 100% permeability. RFU: Relative fluorescence units. N=3 in quadruplicate. (B) Dose-response curves for thrombin-induced permeability, data from A. 100% permeability=permeability in the absence of hPPAEC. Open squares: Permeability at t=55 min. Light grey squares: Permeability at t=135 min. Dark grey squares: Permeability at t=255 min. Dose-response curves were generated using nonlinear regression analyses.
as §1
Data analysis—Data are expressed as mean±SEM from n independent experiments that were performed on different days. Data were analyzed with unpaired Student's t test, one- or two-way analyses of variance with Bonferroni's multiple comparison post hoc test, as appropriate. Dose-response curves were generated using nonlinear regression analyses. All analyses were performed with the GraphPad-Prism 7 software. A two-tailed P<0.05 was considered significant.

Another assay concerns HULEC-5a. The assay can be described thus: Thrombin dose-response in HULEC-5a monolayer permeability assay. As to conditions: read-out: EC50 for thrombin-induced impairment of HULEC-5a barrier function. Type of assay: cell-based, human. On the procedure:
FIGS. 4A-4D show effects of CXCL12 and ubiquitin on thrombin-induced impairment of HULEC-5a monolayer permeability. (A) HULEC-5a were grown to a confluent monolayer on collagen-coated permeable membranes and then exposed to different concentration of thrombin for 10 min, followed by the addition of FITC-dextran. Endothelial permeability was assessed by measuring the amount of FITC-dextran that permeated through the cell monolayer. No cells: 100% permeability. RFU: Relative fluorescence units. N=3 in quadruplicate. (B) Dose-response curves for thrombin-induced permeability, data from A. 100% permeability=permeability in the absence of HULEC-5a. Open squares: Permeability at t=55 min. Light grey squares: Permeability at t=135 min. Dark grey squares: Permeability at t=255 min. (C/D) HULEC-5a were grown to a confluent monolayer on collagen-coated permeable membranes and then exposed to 50 nM of thrombin or vehicle. After 10 min, thrombin-exposed cells were treated with vehicle, CXCL12 (50 nM) (C) or ubiquitin (50 nM) (D), followed by the addition of FITC-dextran. The experimental conditions are indicated. Endothelial permeability was assessed by measuring the amount of FITC-dextran that permeated through the cell monolayer. RFU: Relative fluorescence units. N=3 in quadruplicate. *: p<0.05 vs. thrombin/vehicle (2-way ANOVA/Bonferroni's multiple comparison post hoc test).
as §1

Assay [3] concerns animal model of acute respiratory distress syndrome (ARDS). In words: Animal model of ARDS: lung ischemia reperfusion injury plus hemorrhage (P:F ratio, lung injury score). Type of assay: in vivo, Sprague-Dawley rats. As to conditions: 0.14 μmol/kg i.v. within 10 min after reperfusion; until t=300 min. The method, then: Animals underwent 70 min of […] lung ischemia for 70 min plus hemorrhage to a MAP of 40 mmHg for the last 30 min of ischemia, followed by fluid resuscitation to a MAP of 60 mmHg until t=300 min. Arrow: drug injection. Dashed lines indicate the P:F ratio (mmHg) threshold values for the diagnosis of mild, moderate and severe ARDS. Vehicle: n=5. CXCL12: n=3. CXCL12: n=4. CXCL12-LM: n=3, CXCL12-LD: n=4. CXCL12 K27A/R41A/R47A: n=3. LI+HEM: lung ischemia reperfusion injury plus hemorrhage. Data are mean±SEM. *: p<0.05 vs. vehicle (2-way ANOVA/Dunnett's multiple comparisons test).
FIGS. 12A-12C show lung histology after treatment with CXCL12 and engineered CXCR4 agonists A. Lung specimens were placed in formalin fixative solution and were then embedded in paraffin wax, sliced into 5 μm sections and stained with H&E. Representative images from H&E stained lung sections from animals after vehicle (left) and CXCL12 ([…], right treatment. B/C. Lung injury scores (B. uninjured (left) lung; C. injured (right) lung). Data are median±interquartile ranges. Data were analyzed with the Kruskal Wallis test with Dunn's multiple comparisons test. The level of statistical significance (p) vs. ctrl. (vehicle treatment) indicated.
We tested therapeutic efficacy of wild-type CXCL12, CXXL12-locked dimer (LD), CXCL12-locked monomer (LM) and the triple mutant CXCL12 K27A/R41A/R47A in an animal model of acute respiratory distress syndrome (ARDS) (FIG. 11). All drugs were injected in a dose of 0.14 μmol/kg. Male Sprague-Dawley rats were anesthetized, orotracheally intubated, instrumented with arterial/venous catheters, and mechanically ventilated (PEEP 2 mmHg, FiO2 1.0). After a right lateral thoracotomy, a suture was tied around the hilum of the right lung. Animals underwent 70 min of right lung ischemia plus hemorrhage to a mean arterial blood pressure (MAP) of 40 mmHg for the last 30 min of lung ischemia. At t=70 min, the suture was removed, animals were ventilated with FiO2 1.0, PEEP 5 mmHg and resuscitated with crystalloids to a MAP of 60 mmHg until t=300 min. Vehicle and drugs were injected i.v. within 10 min after reperfusion.
We further evaluated histomorphology of the lungs from animals treated with vehicle, wild-type CXCL12, CXCL12-LD and CXCXL12-LM utilizing a standardized lung injury score. Lung slides stained with hematoxylin and eosin were examined under a light microscope by 4 investigators blinded to the identity of the specimens. The lung injury score was assessed as previously described/. In brief each investigator rendered a score of 0 (no damage) to 4+(maximal damage) based on an injury grading scale composed of six criteria. The slides were assessed for the extent of alveolar congestion, hemorrhage and edema, as well as alveolar and vessel wall PMN infiltration and alveolar wall thickness. […] Lung injury scores of the uninjured and injured lungs from animals treated with vehicle, wild-type CXCL12, CXCL12-LD and CXCXL12-LM are shown in FIGS. […], respectively.

On to “CXCL12 (3-68): truncated CXCL12 (3-68), N-terminal truncated”, for which, in the assay with hPPAEC [1] (thrombin 35 nM, after 10 min 0.05-50 nM protein), the “effect on thrombin-mediated impairment of hPPAEC barrier function” value was “did not attenuate thrombin-induced impairment of hPPAEC barrier function”. Moreover, the “efficacy to recruit β-arrestin 2 to CXCR4” value with CXCR4 (top plateau, % of signal for 1 μM CXCL12α) is “lacked relevant CXCR4 activity”. Further, the “efficacy for β-arrestin 2 recruitment to ACKR3” value in the assay with ACKR3 is “significantly reduced”.
For “CXCL12 R47E: CXCL12 mutant which activates CXCR4 with reduced potency”, the “potency (EC50) to recruit β-arrestin 2 to CXCR4, compared with CXCL12α” value with CXCR4 is recorded as “significantly lower than the potency of CXCL12α”. In the assay with ACKR3, the “ACKR3 activity (in words)” value is on record as “retains ACKR3 activity comparable to wild type proteins”.
Take thrombin: the concentration giving a half-maximal response (EC50) with hPPAEC [2] (after 55 min) is 30 ± 2 nM; with hPPAEC [2] (after 135 min) it was 33 ± 2 nM; in the assay on hPPAEC [2] (after 255 min), 36 ± 2 nM; in the assay on HULEC-5a (after 55 min) it was 64 ± 7 nM; in the assay with HULEC-5a (after 135 min), 64 ± 6 nM; in the assay on HULEC-5a (after 255 min) it was 57 ± 5 nM. Further, the “maximal impairment of endothelial barrier function” value is listed as 49±3% with hPPAEC [2] (at 55 min), 59±4% with hPPAEC [2] (at 135 min) and 72±4% in the assay with hPPAEC [2] (at 255 min). Besides, the “time to reach plateau for the permeability-inducing effects” value in the assay with hPPAEC [2] (thrombin 20 nM) worked out at 55 min; in the assay with hPPAEC [2] (thrombin 40 nM) it was 135 min; in the assay with hPPAEC [2] (thrombin 50 nM), 255 min; with hPPAEC [2] (thrombin 100 nM), 255 min.

B1: CXCL12 K27A/R41A/R47A: CXCL12 mutant with significantly reduced heparan sulfate proteoglycan binding properties (protein)
chain: KPVSLSYRCPCRFFESHVARANVKHLAILNTPNCALQIVAALKNNNAQVCIDPKLKWIQEYLEKALNK
modifications: ends and bridges not checked
In the case of B1, in the assay with hPPAEC [1], the “potency to attenuate thrombin-induced permeability of hPPAEC (in words)” value was “same potency as wild type proteins and CXCL121”. In addition, the “potency (EC50) to recruit β-arrestin 2 to CXCR4, compared with CXCL12α” value in the assay with CXCR4 is “significantly lower than the potency of CXCL12α; also recorded: lowest potency to activate CXCR4”. Moreover, the “EC50 (potency) for β-arrestin 2 recruitment to ACKR3” value in the assay with ACKR3 is on record as “retained high potency to activate ACKR3”. For the same molecule, the “development of ARDS (P:F ratio)” value in assay [3] is “indistinguishable from vehicle treated animals”.
